{
  "source": "patent US11912671B1",
  "about": "“Ethyl 3-(5-(3-fluorophenyl)-4-phenyl-4H-1,2,4- triazol-3-ylthio)propanoate as an antimicrobial compound” (KING FAISAL UNIVERSITY, priority 2023, dated 2024)",
  "assay_type_in_all_cases": "cell-based",
  "key": {"Aspergillus flavus": {"test_system": "Aspergillus flavus", "test": "agar plate disc-diffusion, antifungal inhibition zone", "conditions": "Sabouraud's dextrose agar, 72 hours", "experimental": "(§1) The agar plate disc-diffusion method was applied. […] The discs were then placed onto the surface of agar plates (nutrient agar for bacteria and Sabouraud's dextrose agar for fungi) seeded with the test organism. Each plate contained 15 mL of the agar medium, previously seeded with 0.2 mL of the broth culture of each organism pregrown for 18 hours. The plates were incubated at 37° C. for 48 hours, and 72 hours for fungi. The inhibition zones were measured in mm. Discs impregnated with DMSO were used as a control, and its inhibition zone was subtracted from the tested compound actual inhibition zone."}, "[1]": {"test_system": "Chrysosporium keratinophilum", "test": "agar plate disc-diffusion, antifungal inhibition zone", "conditions": "Sabouraud's dextrose agar, 72 hours", "experimental": "as §1"}, "Escherichia coli": {"test_system": "Escherichia coli", "test": "agar plate disc-diffusion, antibacterial inhibition zone", "conditions": "nutrient agar, 37° C., 48 hours", "experimental": "as §1"}, "Pseudomonas aeruginosa": {"test_system": "Pseudomonas aeruginosa", "test": "agar plate disc-diffusion, antibacterial inhibition zone", "conditions": "nutrient agar, 37° C., 48 hours", "experimental": "as §1"}, "Staphylococcus aureus": {"test_system": "Staphylococcus aureus", "test": "agar plate disc-diffusion, antibacterial inhibition zone", "conditions": "nutrient agar, 37° C., 48 hours", "experimental": "as §1"}, "Bacillus cereus": {"test_system": "Bacillus cereus", "test": "agar plate disc-diffusion, antibacterial inhibition zone", "conditions": "nutrient agar, 37° C., 48 hours", "experimental": "as §1"}, "[2]": {"conditions": "A = concentration of comp. = 10,000 μL"}, "[3]": {"conditions": "B = concentration of comp. = 30,000 μL"}, "[4]": {"conditions": "C = concentration of comp. = 50,000 μL"}},
  "data": [
    {"smiles": "CCOC(=O)CCSc1nnc(-c2cccc(F)c2)n1-c1ccccc1", "note": "[III, ethyl 3-(5-(3-fluorophenyl)-4-phenyl-4H-1,2,4-triazol-3-ylthio)propanoate]", "values": [
      {"measurement": "inhibition zone, Aspergillus flavus, A", "setting": "Aspergillus flavus; [2]", "result": 25, "unit": "mm"},
      {"measurement": "inhibition zone, Aspergillus flavus, B", "setting": "Aspergillus flavus; [3]", "result": 28, "unit": "mm"},
      {"measurement": "inhibition zone, Aspergillus flavus, C", "setting": "Aspergillus flavus; [4]", "result": 34, "unit": "mm"},
      {"measurement": "inhibition zone, Chrysosporium keratinophilum, A", "setting": "[1]; [2]", "result": 26, "unit": "mm"},
      {"measurement": "inhibition zone, Chrysosporium keratinophilum, B", "setting": "[1]; [3]", "result": 28, "unit": "mm"},
      {"measurement": "inhibition zone, Chrysosporium keratinophilum, C", "setting": "[1]; [4]", "result": 46, "unit": "mm"},
      {"measurement": "inhibition zone, Escherichia coli, A", "setting": "Escherichia coli; [2]", "result": 27, "unit": "mm"},
      {"measurement": "inhibition zone, Escherichia coli, B", "setting": "Escherichia coli; [3]", "result": 36, "unit": "mm"},
      {"measurement": "inhibition zone, Escherichia coli, C", "setting": "Escherichia coli; [4]", "result": 53, "unit": "mm"},
      {"measurement": "inhibition zone, Pseudomonas aeruginosa, A", "setting": "Pseudomonas aeruginosa; [2]", "result": 26, "unit": "mm"},
      {"measurement": "inhibition zone, Pseudomonas aeruginosa, B", "setting": "Pseudomonas aeruginosa; [3]", "result": 29, "unit": "mm"},
      {"measurement": "inhibition zone, Pseudomonas aeruginosa, C", "setting": "Pseudomonas aeruginosa; [4]", "result": 46, "unit": "mm"},
      {"measurement": "inhibition zone, Staphylococcus aureus, A", "setting": "Staphylococcus aureus; [2]", "result": 17, "unit": "mm"},
      {"measurement": "inhibition zone, Staphylococcus aureus, B", "setting": "Staphylococcus aureus; [3]", "result": 21, "unit": "mm"},
      {"measurement": "inhibition zone, Staphylococcus aureus, C", "setting": "Staphylococcus aureus; [4]", "result": 30, "unit": "mm"},
      {"measurement": "inhibition zone, Bacillus Cereus, A", "setting": "Bacillus cereus; [2]", "result": 25, "unit": "mm"},
      {"measurement": "inhibition zone, Bacillus Cereus, B", "setting": "Bacillus cereus; [3]", "result": 28, "unit": "mm"},
      {"measurement": "inhibition zone, Bacillus Cereus, C", "setting": "Bacillus cereus; [4]", "result": 38, "unit": "mm"}
    ]}
  ]
}
